Test results: US11331328B2, “Compositions and methods for inhibiting antiapoptotic Bcl-2 proteins as anti-aging agents” (priority 2014, dated 2022)

Tests used:
[1] = tested on: mouse embryonic fibroblasts (MEF); test: Cell viability, IR-SC vs NC, mouse embryonic fibroblasts; format: cell-based; details: increasing concentrations, 72 h
Experimental: Human WI-38 fibroblasts (WI38 cells, #CCL-75™), human IMR-90 fibroblasts (IMR90 cells, #CCL-186™), human renal epithelial cells (REC cells, #PCS-400-012™) were obtained from ACTT (Manassas, Va., USA). Mouse embryonic fibroblasts (MEF) were isolated from mouse embryos as described^1. All cells were cultured in a complete medium (CM) (Dulbecco's Modified Eagle Medium supplemented with 10% fetal bovine serum [FBS], 100 U/ml penicillin, and 100 μg/ml streptomycin [all from Atlanta Biologicals, Norcross, Ga., and USA]) in a humidified incubator at 37° C. and 5% CO2. Low passages of WI-38 cells (<25), IMR-90 (<25), REC cells (<25) and MEF (<3) were used as non-senescent controls or for induction of senescence to avoid replicative senescence. To induce replicative senescence, WI-38 cells were subcultivated until cell division ceased after about 38 passages or 60 population doublings (FIG. 5)^2. […]
Flow cytometry: Non-senescent and senescent cells were seeded into wells of 24- or 48-well at about 70% of confluence. […] Viable cells (PI^− cells) were numerated by flow cytometry at a constant flow rate and calculated as a percentage of control cells treated with vehicle using the formula: percentage of control=(Ndrug/NC)×100, where Ndrug and NC represent the absolute number of PI^− viable cells of drug-treated and vehicle-treated cells, respectively.

IR-induced WI-38 SCs = test: Apoptosis analysis (Annexin V/PI flow cytometry); format: cell-based, human; details: 1.25 μM ABT263, 24 h, with or without 20 μM Q-VD-OPh
Experimental: Cells were seeded into a 6-well plate at 4-6×10^5 cells/well. […] The cells were harvested 24 h after treatment and resuspended in 1× annexin V binding buffer (BD Biosciences) at 1×10^6 cells/ml. An aliquot (100 μl) of the cell suspension was incubated with 5 μl of Annexin V-FITC (BD Biosciences) or PI (1 mg/ml) for 15 min at room temperature in the dark. After addition of 400 μl of 1× binding buffer, 10,000 cells per sample were analyzed by a BD LSR H flow cytometer (BD Biosciences).

caspase 3, caspase 8 = test: Western blot analysis of caspase activation; format: cell-based, human; details: IR-SC WI-38; 1.25 μM ABT263, 24 h
Experimental: Cells (1×10^6) were lysed in 100 μl lysis buffer (20 mM Tris-HCl, pH 7.4, 150 mM NaCl, 1 mM EDTA. 1 mM EGTA, 10% glycerol, 1.0% NP-40, 0.1 M NaF, 1 mM DTT, 1 mM PMSF, 1 mM NaVO4, 2 μg/ml leupeptin and aprotinin) for 30 min on ice, and cell extracts were sonicated 3 times (5 secs each time) on ice with a 25-sec interval in between using a Sonic Dismembrator Ultrasonic Convertor (Model F60, from Fisher, Pittsburgh, Pa., USA). The protein concentrations were quantified using the Bio-Rad Dc protein assay kit (Bio-Rad Laboratories, Hercules, Calif., USA). Equal amounts of protein (25-50 μg/lane) from each extract was resolved on 12% SDS-PAGE gels. Proteins were blotted to NOVEX NC membranes (Life Technologies, Carlsbad, Calif., USA). The membranes were blocked with TBS-T (5% nonfat milk in 25 mM Tris-HCl, pH 7.4. 3 mM KCl, 140 mM NaCl, and 0.05% Tween) and subsequently probed with primary antibodies at a predetermined optimal concentration as indicated in Supplementary Table 3 overnight at 4° C. or for 1 h at room temperature. […] After three washes with TBS-T, the blots were detected using the ECL Western Blotting Detection Reagents (Cat #WBKLS0100) (EMD MILLIPORE. Newmarket, Suffolk, UK) and recorded by exposure of the blots to X-ray film (Pierce Biotech, Rockford, Ill., USA).

bone marrow HSCs = test: Single HSC culture clonogenic activity in vitro; format: cell-based, mouse; details: 1.25 μM ABT263
Experimental: Freshly prepared medium was added every 3 days, Two weeks later, the numbers of cells produced by each HSC were counted.

CC1(C)CCC(c2ccc(Cl)cc2)=C(CN2CCN(c3ccc(C(=O)NS(=O)(=O)c4ccc(N[C@H](CCN5CCOCC5)CSc5ccccc5)c(S(=O)(=O)C(F)(F)F)c4)cc3)CC2)C1 [ABT263, navitoclax]
viable cells, IR-SC vs NC [1]: kills IR-induced senescent cells (IR-SC) but not non-senescent cells (NC)
apoptosis induction (IR-induced WI-38 SCs): selectively killed SCs by inducing apoptosis, which was abrogated by QVD
caspase activation (caspase 3, caspase 8): SCs activated caspase 3, but not caspase 8
clonogenicity of BM HSCs in vitro (bone marrow HSCs; HSCs from control unirradiated mice): had little effect on the clonogenicity of BM HSCs from control unirradiated mice
clonogenicity of BM HSCs in vitro (bone marrow HSCs; HSCs from irradiated mice): markedly reduced the clonogenicity of BM HSCs from irradiated mice
